Assay results from ChEMBL document CHEMBL3994622, “Design and synthesis of new RAF kinase-inhibiting antiproliferative quinoline derivatives. Part 2: Diarylurea derivatives” (Eur J Med Chem, 2017).

How the values were obtained:
[1] = test system: HOP-62; assay: Growth inhibition of human HOP62 cells assessed as cell growth at 30 uM incubated for 48 hrs by sulforhodamine B assay relative to control; format: functional; settings: HOP-62, 48 h, read-out: Activity
[2] = molecular target: Epidermal growth factor receptor (Homo sapiens) (UniProt P00533); assay: Inhibition of human EGFR at 10 uM using poly[Glu:Tyr] (4:1) as substrate in presence of [33P]ATP by Hotspot assay relative to control
Chain of Epidermal growth factor receptor (Homo sapiens) (P00533 whole entry): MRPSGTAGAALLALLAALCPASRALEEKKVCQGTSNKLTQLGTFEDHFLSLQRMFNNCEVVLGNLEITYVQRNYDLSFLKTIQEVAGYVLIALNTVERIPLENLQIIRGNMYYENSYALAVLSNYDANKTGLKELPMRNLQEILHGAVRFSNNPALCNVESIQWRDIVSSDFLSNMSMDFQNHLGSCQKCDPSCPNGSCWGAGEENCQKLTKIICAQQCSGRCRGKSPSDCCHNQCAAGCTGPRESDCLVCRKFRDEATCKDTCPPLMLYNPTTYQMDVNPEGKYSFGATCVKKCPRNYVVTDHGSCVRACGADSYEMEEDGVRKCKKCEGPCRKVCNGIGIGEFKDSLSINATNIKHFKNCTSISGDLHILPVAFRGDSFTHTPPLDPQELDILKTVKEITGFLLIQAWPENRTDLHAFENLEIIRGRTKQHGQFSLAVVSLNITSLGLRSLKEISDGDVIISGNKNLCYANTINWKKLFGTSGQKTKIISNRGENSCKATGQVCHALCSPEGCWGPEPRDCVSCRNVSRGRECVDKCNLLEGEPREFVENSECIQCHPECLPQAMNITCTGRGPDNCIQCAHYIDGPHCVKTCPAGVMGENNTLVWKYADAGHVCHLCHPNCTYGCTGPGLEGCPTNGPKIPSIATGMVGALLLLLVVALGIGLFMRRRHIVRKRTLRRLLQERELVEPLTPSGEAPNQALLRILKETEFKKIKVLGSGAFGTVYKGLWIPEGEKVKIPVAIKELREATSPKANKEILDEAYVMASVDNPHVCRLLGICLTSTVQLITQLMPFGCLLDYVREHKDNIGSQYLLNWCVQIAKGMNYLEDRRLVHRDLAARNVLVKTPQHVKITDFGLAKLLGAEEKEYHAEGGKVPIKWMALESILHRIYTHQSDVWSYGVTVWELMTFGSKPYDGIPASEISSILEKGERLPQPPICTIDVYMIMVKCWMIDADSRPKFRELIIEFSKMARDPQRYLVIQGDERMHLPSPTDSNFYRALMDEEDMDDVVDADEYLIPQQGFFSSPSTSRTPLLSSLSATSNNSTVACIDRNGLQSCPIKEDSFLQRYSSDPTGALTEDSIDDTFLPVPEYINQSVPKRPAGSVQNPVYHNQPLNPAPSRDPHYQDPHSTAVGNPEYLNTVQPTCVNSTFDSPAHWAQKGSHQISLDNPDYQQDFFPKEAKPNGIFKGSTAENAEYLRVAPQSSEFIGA

[3] = test system: LOX IMVI; assay: Growth inhibition of human LOXIMVI cells assessed as cell growth at 0.03 uM incubated for 48 hrs by sulforhodamine B assay relative to control; format: functional; settings: read-out: Activity
[4] = test system: EKVX; assay: Growth inhibition of human EKVX cells assessed as cell growth at 30 uM incubated for 48 hrs by sulforhodamine B assay relative to control; format: functional; settings: read-out: Activity
[5] = test system: MDA-MB-468; assay: Growth inhibition of human MDA-MB-468 cells assessed as cell growth at 100 uM incubated for 48 hrs by sulforhodamine B assay relative to control; format: functional; settings: MDA-MB-468, 48 h, read-out: Activity
[6] = test system: SF-539; assay: Growth inhibition of human SF539 cells assessed as cell growth at 0.5 uM incubated for 48 hrs by sulforhodamine B assay relative to control; format: functional; settings: SF-539, 48 h, read-out: Activity
[7] = test system: MDA-MB-435; assay: Growth inhibition of human MDA-MB-435 cells assessed as cell growth at 0.5 uM incubated for 48 hrs by sulforhodamine B assay relative to control; format: functional; settings: MDA-MB-435, 48 h, read-out: Activity
[8] = test system: NCI-H23; assay: Growth inhibition of human NCI-H23 cells assessed as cell growth at 0.05 uM incubated for 48 hrs by sulforhodamine B assay relative to control; format: functional; settings: NCI-H23, 48 h, read-out: Activity
[9] = test system: 786-0; assay: Growth inhibition of human 786-0 cells assessed as cell growth at 5 uM incubated for 48 hrs by sulforhodamine B assay relative to control; format: functional; settings: 786-0, 48 h, read-out: Activity
[10] = test system: 786-0; assay: Growth inhibition of human 786-0 cells assessed as cell growth at 0.5 uM incubated for 48 hrs by sulforhodamine B assay relative to control; format: functional; settings: 786-0, 48 h, read-out: Activity
[11] = test system: NCI-H23; assay: Growth inhibition of human NCI-H23 cells assessed as cell growth at 50 uM incubated for 48 hrs by sulforhodamine B assay relative to control; format: functional; settings: NCI-H23, 48 h, read-out: Activity
[12] = test system: SW-620; assay: Growth inhibition of human SW620 cells assessed as cell growth at 0.005 uM incubated for 48 hrs by sulforhodamine B assay relative to control; format: functional; settings: SW-620, 48 h, read-out: Activity
[13] = test system: LOX IMVI; assay: Growth inhibition of human LOXIMVI cells assessed as cell growth at 50 uM incubated for 48 hrs by sulforhodamine B assay relative to control; format: functional; settings: read-out: Activity
[14] = test system: SN12C; assay: Growth inhibition of human SN12C cells assessed as cell growth at 0.005 uM incubated for 48 hrs by sulforhodamine B assay relative to control; format: functional; settings: read-out: Activity
[15] = test system: 786-0; assay: Growth inhibition of human 786-0 cells assessed as cell growth at 0.005 uM incubated for 48 hrs by sulforhodamine B assay relative to control; format: functional; settings: 786-0, 48 h, read-out: Activity
[16] = test system: RPMI-8226; assay: Growth inhibition of human RPMI8226 cells assessed as cell growth at 0.05 uM incubated for 48 hrs by sulforhodamine B assay relative to control; format: functional; settings: RPMI-8226, 48 h, read-out: Activity
[17] = test system: SF-268; assay: Growth inhibition of human SF268 cells assessed as cell growth at 0.05 uM incubated for 48 hrs by sulforhodamine B assay relative to control; format: functional; settings: SF-268, 48 h, read-out: Activity
[18] = test system: CAKI-1; assay: Growth inhibition of human Caki1 cells assessed as cell growth at 0.05 uM incubated for 48 hrs by sulforhodamine B assay relative to control; format: functional; settings: CAKI-1, 48 h, read-out: Activity
[19] = test system: A498; assay: Growth inhibition of human A498 cells assessed as cell growth at 50 uM incubated for 48 hrs by sulforhodamine B assay relative to control; format: functional; settings: A498, 48 h, read-out: Activity
[20] = test system: OVCAR-5; assay: Growth inhibition of human OVCAR5 cells assessed as cell growth at 0.005 uM incubated for 48 hrs by sulforhodamine B assay relative to control; format: functional; settings: OVCAR-5, 48 h, read-out: Activity
[21] = test system: Malme-3M; assay: Growth inhibition of human MALME-3M cells assessed as cell growth at 50 uM incubated for 48 hrs by sulforhodamine B assay relative to control; format: functional; settings: read-out: Activity
[22] = test system: HL-60(TB); assay: Growth inhibition of human HL-60(TB) cells assessed as cell growth at 0.5 uM incubated for 48 hrs by sulforhodamine B assay relative to control; format: functional; settings: HL-60, 48 h, read-out: Activity
[23] = test system: NCI/ADR-RES; assay: Growth inhibition of human NCI/ADR-RES cells assessed as cell growth at 0.05 uM incubated for 48 hrs by sulforhodamine B assay relative to control; format: functional; settings: read-out: Activity
[24] = test system: OVCAR-5; assay: Growth inhibition of human OVCAR5 cells assessed as cell growth at 5 uM incubated for 48 hrs by sulforhodamine B assay relative to control; format: functional; settings: OVCAR-5, 48 h, read-out: Activity
[25] = test system: EKVX; assay: Growth inhibition of human EKVX cells assessed as cell growth at 50 uM incubated for 48 hrs by sulforhodamine B assay relative to control; format: functional; settings: read-out: Activity
[26] = test system: M14; assay: Growth inhibition of human M14 cells assessed as cell growth at 50 uM incubated for 48 hrs by sulforhodamine B assay relative to control; format: functional; settings: M14, 48 h, read-out: Activity
[27] = test system: K562; assay: Growth inhibition of human K562 cells assessed as cell growth at 0.5 uM incubated for 48 hrs by sulforhodamine B assay relative to control; format: functional; settings: K562, 48 h, read-out: Activity
[28] = test system: HOP-62; assay: Growth inhibition of human HOP62 cells assessed as cell growth at 0.5 uM incubated for 48 hrs by sulforhodamine B assay relative to control; format: functional; settings: HOP-62, 48 h, read-out: Activity
[29] = test system: UACC-62; assay: Growth inhibition of human UACC62 cells assessed as cell growth at 50 uM incubated for 48 hrs by sulforhodamine B assay relative to control; format: functional; settings: UACC-62, 48 h, read-out: Activity
[30] = test system: DU-145; assay: Growth inhibition of human DU145 cells assessed as cell growth at 5 uM incubated for 48 hrs by sulforhodamine B assay relative to control; format: functional; settings: DU-145, 48 h, read-out: Activity
[31] = test system: K562; assay: Growth inhibition of human K562 cells assessed as cell growth at 5 uM incubated for 48 hrs by sulforhodamine B assay relative to control; format: functional; settings: K562, 48 h, read-out: Activity
[32] = test system: SK-MEL-28; assay: Growth inhibition of human SK-MEL-28 cells assessed as cell growth at 0.005 uM incubated for 48 hrs by sulforhodamine B assay relative to control; format: functional; settings: SK-MEL-28, 48 h, read-out: Activity
[33] = test system: COLO 205; assay: Growth inhibition of human COLO205 cells assessed as cell growth at 5 uM incubated for 48 hrs by sulforhodamine B assay relative to control; format: functional; settings: COLO 205, 48 h, read-out: Activity
[34] = test system: HCT-116; assay: Growth inhibition of human HCT116 cells assessed as cell growth at 0.005 uM incubated for 48 hrs by sulforhodamine B assay relative to control; format: functional; settings: HCT-116, 48 h, read-out: Activity
[35] = test system: OVCAR-5; assay: Growth inhibition of human OVCAR5 cells assessed as cell growth at 0.05 uM incubated for 48 hrs by sulforhodamine B assay relative to control; format: functional; settings: OVCAR-5, 48 h, read-out: Activity

**Q.** For COc1cc2cc(Oc3ccc(NC(=O)Nc4ccc(Cl)c(C(F)(F)F)c4)cc3)c(C)nc2cc1OC, which growth at 30 µM [1] is on record?
**A.** -96%

**Q.** And the inhibition [2]?
**A.** -0.3%

**Q.** What about the growth at 0.03 µM [3] of the same compound?
**A.** 99%

**Q.** What about the growth at 30 µM [4] of the same compound?
**A.** -70%

**Q.** How did the growth at 100 µM [5] turn out when COc1cc2cc(Oc3ccc(NC(=O)Nc4cc(C(F)(F)F)cc(C(F)(F)F)c4)cc3)c(C)nc2cc1OC was run?
**A.** -67%

**Q.** Which results are given for COc1cc2cc(Oc3ccc(NC(=O)Nc4cccc(C(F)(F)F)c4)cc3)c(C)nc2cc1OC?
**A.** growth at 0.5 µM [6]: 104%; growth at 0.5 µM [7]: 89%; growth at 0.05 µM [8]: 99%; growth at 5 µM [9]: 12%; growth at 0.5 µM [10]: 95%; growth at 50 µM [11]: -42%; growth at 0.005 µM [12]: 99%; growth at 50 µM [13]: -99%; growth at 0.005 µM [14]: 95%; growth at 0.005 µM [15]: 98%; growth at 0.05 µM [16]: 96%; growth at 0.05 µM [17]: 89%; growth at 0.05 µM [18]: 93%; growth at 50 µM [19]: -65%; growth at 0.005 µM [20]: 103%; growth at 50 µM [21]: -60%; growth at 0.5 µM [22]: 112%; growth at 0.05 µM [23]: 101%; growth at 5 µM [24]: 31%; growth at 50 µM [25]: -48%; growth at 50 µM [26]: -61%; growth at 0.5 µM [27]: 93%; growth at 0.5 µM [28]: 100%; growth at 50 µM [29]: -44%; growth at 5 µM [30]: 32%; growth at 5 µM [31]: 13%; growth at 0.005 µM [32]: 101%; growth at 5 µM [33]: -48%; growth at 0.005 µM [34]: 100%; growth at 0.05 µM [35]: 103%
